“Also recorded” adds a separate entry of the source.
Columns and labels:
Type in all cases: in vivo, mouse
[1] = tested on: C57BL/6J mice fed high fat diet; assay: Plasma insulin level (ELISA), high-fat diet induced model; conditions: day 14 of treatment after 8 weeks high-fat diet; P<0.05; GW1929 5 mg/kg, UP394 and UP396 100 mg/kg
From the text: A high-fat diet induced animal model was developed and used for evaluation of potential therapeutic effects of chromone extracts. The C57BL/6J is a clinically relevant animal model that can be used in studies on metabolic disorders, pathophysiology of impaired glucose tolerance and for development of novel therapeutic agents (Ahren et al. (2004) Diabetes 53 (Supplement 3):S215-S219; Laakso et al. (2004) Diabetes Care 27:2253-2259; Kahn et al. (2004) Diabetes 53:3274-3285; Scheurink et al. (1998) European J Endo. 139:461-467; Yuan et al. (2002) Diabetes 51:1851-1858; Reitman et al. (2005) Endocrinology 145:3258-3264; Vlassara et al. (2005) Diabetes 54:2314-2319; Cawthome et al. (2002) Molecular and Cellular Proteomics 1:509-516). Methodology of model induction was first explained by Surwit et al. in 1988 (Diabetes, 37:1163-1167). In brief, impaired glucose tolerance and metabolic disorder like symptoms were inflicted successfully in C57BL/6J mice when fed with high fat diets for 8 weeks. Male C57BL/6J mice were purchased from Jackson Laboratories (Bar Harbor, Me.) at age of 6 weeks. One week after acclimation period, animals were divided into groups (n=5 or 6) and provided with high fat (45% kcal) rodent pellet (Research diets, Inc., New Brunswick, N.J.) and water ad libitum for 12 weeks except at times of glucose and insulin tolerance tests at which feed was withheld for three hours. Animals were maintained in a temperature controlled room (22.2° C.) on a 12 hour light-dark cycle. Blood glucose, cholesterol, and triglyceride were monitored every week for 12 weeks as described previously. Body weight measurement was taken once a week for 12 weeks.
Once induction of the metabolic disorders was confirmed by weekly monitoring of selected parameters (glucose, triglyceride and cholesterol) i.e. on the 8th week, daily intraperitoneal treatment was initiated and maintained for 4 weeks. […]
The plasma insulin levels were measured with an ELISA kit for insulin (Crystal Chem—Chicago, Ill.). […]

[2] = tested on: high fat diet induced C57BL/6J mice; assay: Fasting blood glucose, UP780 dose-range study; conditions: weeks 5 and 7; UP780 200 mg/kg, GW1929 5 mg/kg
Description: (§1) Once an induction of the disease on animals after 8 weeks of high fat diets was confirmed by monitoring of selected parameters, daily oral treatment was initiated. On each day, the test articles and the positive control GW1929 (Tocris Bioscience, Ellisville, Mo., Batch #2A/58705) were dissolved in 0.5% methylcellulose (Sigma, St. Louise Mo., Lot#116H0857) and delivered at an oral dose of 100, 200 and 400 mg/kg of UP780 (Lot # L1806QMAW-01); 400 mg/kg of Qmatrix® Aloe vera gel powder (QM400, Lot# G6319103-L3) as well as 5 mg/kg of GW1929. As GW1929 was not completely solublized in methylcellulose, it was first dissolved in DMSO (Sigma, St. Louis, Mo., Batch#064K0067). The final concentration of test compounds, including the vehicle, was then adjusted to contain 5% DMSO before drug administration. The carrier vehicle treated animals received 0.5% methylcellulose only. No detectable sign of irritation was observed after each drug or vehicle administration.
(§2) As described on Example 12, male C57BL/6J mice were purchased from Jackson Laboratories (Bar Harbor, Me.) at 6 weeks of age. […]
(§3) Fasting blood glucose, total cholesterol and triglyceride levels were measured using 15-20 μl of blood obtained from tail vein. […]

[3] = tested on: high fat diet induced C57BL/6J mice; assay: Intraperitoneal glucose tolerance test, UP780 dose-range study; conditions: week 3 of daily oral treatment; 30, 60 and 90 minutes; UP780 200 mg/kg, GW1929 5 mg/kg
Description: as §1, with “vehicle administration. […]” for “vehicle administration.”
An intraperitoneal glucose tolerance test was conducted on day 0 (baseline), weeks 3, and 9 after onset of treatment. […] Blood glucose levels were determined at time 0 (before glucose injection), 30, 60, 90, and 120 minutes post glucose delivery. […] Blood glucose levels were determined at time 0 (before insulin injection), 30, 60, 90, and 120 minutes after insulin administration. […]

[4] = Feed consumption, UP780 dose-range study; conditions: GW1929 5 mg/kg, Qmatrix 400 mg/kg, UP780 100, 200 and 400 mg/kg
Description: as §1, §2
(§4) Three or four male C57BL/6J mice were housed in a mouse cage that had sections for feed and water. Feed intake was determined daily by measuring the difference between previously weighed high fat pellets value and what was left on the given day. […]

[5] = Body weight, UP780 dose-range study; conditions: GW1929 5 mg/kg, Qmatrix 400 mg/kg, UP780 100, 200 and 400 mg/kg; weekly
Description: as §1, §2, §4

[6] = tested on: high fat diet induced C57BL/6J mice; assay: Fasting triglyceride, UP780 dose-range study; conditions: after 7 weeks of daily oral treatment; GW1929 5 mg/kg
Description: as §1, §2, §3

With `CN(CCOc1ccc(C[C@H](Nc2ccccc2C(=O)c2ccccc2)C(=O)O)cc1)c1ccccn1` [GW1929, N-(2-Benzoylphenyl)-O-[2-(methyl-2-pyridinylamino)ethyl]-L-tyrosine] the “plasma insulin levels compared to vehicle” value [1] was “decreased the insulin level significantly; also recorded: Significant decreases in plasma insulin levels”, the “fasting glucose level compared to vehicle” value [2] was “statistically significant lower fasting glucose level” and the “glucose clearance in intraperitoneal glucose tolerance test vs vehicle” value [3] was “statistically significant glucose clearance”. For the same compound, the “feed consumption difference between groups” value [4] was “no significant body weight gain or feed consumption differences”, the “body weight gain difference between groups” value [5] was “no significant body weight gain or feed consumption differences; also recorded: No statistically significant body weight gain difference” and the “percent reduction of fasting triglyceride level to vehicle” value [6] was 22.7%.

— US8852657B2, “Chromones as therapeutic agents” (Unigen, Inc., priority 2007, dated 2014)
